Paper PMC4129108, “The natural triterpene 3β,6β,16β-trihydroxy-lup-20(29)-ene obtained from the flowers of Combretum leprosum induces apoptosis in MCF-7 breast cancer cells” (BMC Complementary and Alternative Medicine, 2014)
≈ marks a conversion by molar mass, not a printed value.

Legend:
[1] = tested on: HT29 cell (colorectal adenocarcinoma); assay: XTT cell viability assay, HT29; assay type: cell-based, human; conditions: Homo sapiens, HT-29; HT29, 24 h treatment, XTT
Procedure: (§1) The human cell lines MCF-7 (breast adenocarcinoma), HepG2 (hepatoma), T24 (bladder cancer), CACO-2 (colorectal adenocarcinoma) and MRC5 (lung normal fibroblast) were obtained from the Rio de Janeiro Cell Bank (Rio de Janeiro, RJ, Brazil). The HCT116 cell (colorectal carcinoma), and HT29 cell (colorectal adenocarcinoma) were kindly provided by Dr. Annette K. Larsen (Institut National de la Santé et de la Recherche Médicale - INSERM, Paris, França). All cell lines except MCF-7 were grown in DMEM supplemented with 10% or 20% (for CACO-2) FBS, 100 units.mL^-1 penicillin and 100 μg.mL^-1 streptomycin at 37°C in a humidified atmosphere of 5% CO2. MCF-7 cells were maintained in RPMI-1640 supplemented with 20% FBS at the same conditions described above.
(§2) The cytotoxic potential of the TTHL was evaluated by the XTT assay in human tumor cell lines as well as in MRC5 normal fibroblasts. Cells (1 × 10^4 cells) were seeded on 96-well plates in growth medium and incubated overnight. Afterwards, TTHL (0.5, 1.0, 2.5, 5.0, and 10 μg/mL) was added to each well and incubated for 24, 48, 72, and 120 h. Mitoxantrone, a cytostatic anthracenedione that intercalates in DNA and increases the incidence of double-strand breaks by stabilizing the cleavable complex of topoisomerase II and DNA, was used as positive control. At the end of each treatment, cell viability was assessed according to the manufacturer’s instructions. Briefly, after discarding the medium, 1 mL of XTT labeling mixture was added to the cells and incubated for 2 h at 37°C. Absorbance was measured with a SpectraMax reader (Bio-Rad, USA) at a test wavelength of 492 nm (A492) and a reference wavelength of 690 nm (A690). The final result corresponds to A492-A690. The absorbance of negative control cells was set as 100% viability, and the values for treated cells were calculated as a percentage of the control.
(§3) The IC20, IC50, and IC80 values and their 95% confidence intervals (CI 95%) were obtained by nonlinear regression using GraphPad Prism v5 program (Intuitive Software for Science, San Diego, CA, USA). Selective index (SI) was calculated by IC50 in MRC5 cells/IC50 in tumoral cells. All experiments were independently repeated at least three times, with triplicate samples for each treatment. Results are expressed as means ± standard deviation (SD). Data were analyzed by one-way analysis of variance (ANOVA), and means were compared using Tukey test, with P ≤ 0.05 considered as statistically significant.

[2] = tested on: MRC5 (lung normal fibroblast); assay: XTT cell viability assay, MRC5 normal fibroblasts; assay type: cell-based; conditions: Homo sapiens, MRC5, 24 h treatment
Procedure: as §1, §2, §3

[3] = tested on: HepG2 (hepatoma); assay: XTT cell viability assay, HepG2; assay type: cell-based, human; conditions: Homo sapiens; HepG2, 24 h treatment, XTT
Procedure: as §1, §2, §3

[4] = tested on: T24 (bladder cancer); assay: XTT cell viability assay, T24; assay type: cell-based, human; conditions: Homo sapiens; T24, 24 h treatment, XTT
Procedure: as §1, §2, §3

[5] = tested on: CACO-2 (colorectal adenocarcinoma); assay: XTT cell viability assay, CACO-2; assay type: cell-based, human; conditions: Homo sapiens; CACO-2, 24 h treatment, XTT
Procedure: as §1, §2, §3

[6] = tested on: HCT116 cell (colorectal carcinoma); assay: XTT cell viability assay, HCT116; assay type: cell-based, human; conditions: Homo sapiens, HCT-116; HCT116, 24 h treatment, XTT
Procedure: as §1, §2, §3

[7] = tested on: tumor cell lines; assay: XTT cell viability assay, panel of tumor cell lines; assay type: cell-based; conditions: Homo sapiens, read-out: IC50 values in tumor cell lines (range over the panel)
Procedure: as §1
The cytotoxic potential of the TTHL was evaluated by the XTT assay in human tumor cell lines as well as in MRC5 normal fibroblasts. Cells (1 × 10^4 cells) were seeded on 96-well plates in growth medium and incubated overnight. […] At the end of each treatment, cell viability was assessed according to the manufacturer’s instructions. […] Absorbance was measured with a SpectraMax reader (Bio-Rad, USA) at a test wavelength of 492 nm (A492) and a reference wavelength of 690 nm (A690). […] The absorbance of negative control cells was set as 100% viability, and the values for treated cells were calculated as a percentage of the control. […]

[8] = tested on: MCF-7 (breast adenocarcinoma); assay: XTT cell viability assay, MCF-7; assay type: cell-based, human; conditions: Homo sapiens, MCF7; MCF-7, 24 h treatment, XTT
Procedure: as §1, §2, §3

[9] = tested on: S. cerevisiae EG118 (sod1Δ); assay: Yeast survival assay, EG118 (sod1Δ); assay type: cell-based, Saccharomyces cerevisiae; conditions: positive control H2O2 5 mM, 1 h in PBS
Procedure: (§4) Media, solutions and buffers were prepared according to Burke et al.. YPD medium (0.5% yeast extract, 2% peptone, 2% glucose) was used for routine growth. Synthetic medium SC (0.67% yeast nitrogen base, 0.1% ammonium sulfate, 2% glucose) supplemented with the appropriate amino acids and bases ([…]) was used for the detection of mutations.
(§5) Stationary phase (STAT) cultures were obtained by inoculation of a single colony into liquid YPD. We chose to work in the stationary phase of growth because this resembles most cells of multicellular organisms in important aspects: (i) most energy comes from mitochondrial respiration; (ii) the cells have left the active cell cycle and have entered the Go phase; and (iii) damage accumulates over time.
(§6) STAT cells (1 × 10^8 cells/mL) were exposed to TTHL (10–500 μg/mL) and incubated under growth conditions for 1 h in PBS at 30°C. Cells were then washed and treated with H2O2 (5 mM) in PBS for another hour. Suitable aliquots were plated in triplicate on solid YPD (2–3 days, 30°C) and colony-forming units were counted. Sensitivity was expressed as a percentage of survival in relation to the negative control (solvent).

[10] = tested on: S. cerevisiae EG103 (SOD-WT); assay: Yeast survival assay, EG103 (SOD-WT); assay type: cell-based, Saccharomyces cerevisiae; conditions: positive control H2O2 5 mM, 1 h in PBS
Procedure: as §4, §5, §6

[11] = tested on: S. cerevisiae EG133 (sod1Δsod2Δ); assay: Yeast survival assay, EG133 (sod1Δsod2Δ); assay type: cell-based, Saccharomyces cerevisiae; conditions: positive control H2O2 5 mM, 1 h in PBS
Procedure: as §4, §5, §6

[12] = tested on: S. cerevisiae EG110 (sod2Δ); assay: Yeast survival assay, EG110 (sod2Δ); assay type: cell-based, Saccharomyces cerevisiae; conditions: positive control H2O2 5 mM, 1 h in PBS
Procedure: as §4, §5, §6

Compound `O=C1c2c(O)ccc(O)c2C(=O)c2c(NCCNCCO)ccc(NCCNCCO)c21` [MXT, mitoxantrone, reference compound] has an IC50 [1] of 0.88 ± 2.33 µg/mL (≈ 1.98 µM), an IC50 [2] of 2.88 ± 1.44 µg/mL (≈ 6.48 µM) and an IC50 [3] of 3.5 ± 0.39 µg/mL (≈ 7.87 µM). For the same compound, the IC50 [4] was 2.5 ± 0.62 µg/mL (≈ 5.62 µM), the IC50 [5] was 2.4 ± 1.81 µg/mL (≈ 5.4 µM) and the IC50 [6] was 0.61 ± 0.67 µg/mL (≈ 1.37 µM). It also gave an IC50 [7] of 0.61 to 3.5 µg/mL (≈ 1.37 to 7.87 µM) and an IC50 [8] of 0.87 ± 1.59 µg/mL (≈ 1.96 µM).
For `OO` [H2O2, hydrogen peroxide, reference compound], the “survival (percentage in relation to negative control)” value [9] was 16.27 ± 4.88%, the “survival (percentage in relation to negative control)” value [10] was 63.03 ± 4.12% and the “survival (percentage in relation to negative control)” value [11] was 19.33 ± 2.10%. For the same compound, the “survival (percentage in relation to negative control)” value [12] was 19.10 ± 4.03%.
